≈ marks a conversion by molar mass, not a printed value. Read-outs that look alike come from different tables or passages of the source.
Assays:
[1] = tested on: S.aureus; assay: Whole cell antimicrobial screen (MIC, NCCLS microdilution); assay type: cell-based; details: for MIC: Staphylococcus aureus
Protocol: Compounds were tested for antimicrobial activity against a panel of organisms according to standard procedures described by the National Committee for Clinical Laboratory Standards (NCCLS document M7-A3, Vol. 13, No. 25, 1993/NCCLS document M27-P, Vol. 12, No. 25, 1992). Compounds were dissolved in 100% DMSO and were diluted to the final reaction concentration (0.1 μg/ml-500 μg/ml) in microbial growth media. In all cases the final concentration of DMSO incubated with cells is less than or equal to 1%. For minimum inhibitory concentration (MIC) calculations, 2-fold dilutions of compounds were added to wells of a microtiter plate containing 5×10^4 bacteria or fungal cells in a final volume of 200 lambda of an appropriate media (Mueller-Hinton Broth; Haemophilus Test Media; Mueller-Hinton Broth+5% Sheep Blood; or […]). Plates were incubated overnight at an appropriate temperature (30° C.-37° C.) and optical densities (measure of cell growth) were measured using a commercial plate reader. The MIC value is defmed as the lowest compound concentration inhibiting growth of the test organism.

[2] = biological target: T1, E.faecalis PheRS (Enterococcus faecalis, UniProt Q836J6); assay: aaRS charging and trichloroacetic acid precipitation assay, IC50 determination; assay type: biochemical; details: 20 min preincubation at 25 C; Km concentrations of substrates; stereoisomers tested separately
T1 sequence (Q836J6 1-348): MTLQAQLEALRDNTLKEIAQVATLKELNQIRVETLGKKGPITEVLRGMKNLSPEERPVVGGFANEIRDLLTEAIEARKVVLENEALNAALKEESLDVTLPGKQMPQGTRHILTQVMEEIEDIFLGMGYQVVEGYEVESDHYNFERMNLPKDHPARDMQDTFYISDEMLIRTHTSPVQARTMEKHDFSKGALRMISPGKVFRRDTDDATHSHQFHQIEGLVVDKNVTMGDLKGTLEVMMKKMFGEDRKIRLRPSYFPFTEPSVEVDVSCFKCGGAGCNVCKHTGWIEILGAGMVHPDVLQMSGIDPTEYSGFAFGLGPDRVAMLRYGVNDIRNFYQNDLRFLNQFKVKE
T1 sequence (Q836J5 1-807 partner): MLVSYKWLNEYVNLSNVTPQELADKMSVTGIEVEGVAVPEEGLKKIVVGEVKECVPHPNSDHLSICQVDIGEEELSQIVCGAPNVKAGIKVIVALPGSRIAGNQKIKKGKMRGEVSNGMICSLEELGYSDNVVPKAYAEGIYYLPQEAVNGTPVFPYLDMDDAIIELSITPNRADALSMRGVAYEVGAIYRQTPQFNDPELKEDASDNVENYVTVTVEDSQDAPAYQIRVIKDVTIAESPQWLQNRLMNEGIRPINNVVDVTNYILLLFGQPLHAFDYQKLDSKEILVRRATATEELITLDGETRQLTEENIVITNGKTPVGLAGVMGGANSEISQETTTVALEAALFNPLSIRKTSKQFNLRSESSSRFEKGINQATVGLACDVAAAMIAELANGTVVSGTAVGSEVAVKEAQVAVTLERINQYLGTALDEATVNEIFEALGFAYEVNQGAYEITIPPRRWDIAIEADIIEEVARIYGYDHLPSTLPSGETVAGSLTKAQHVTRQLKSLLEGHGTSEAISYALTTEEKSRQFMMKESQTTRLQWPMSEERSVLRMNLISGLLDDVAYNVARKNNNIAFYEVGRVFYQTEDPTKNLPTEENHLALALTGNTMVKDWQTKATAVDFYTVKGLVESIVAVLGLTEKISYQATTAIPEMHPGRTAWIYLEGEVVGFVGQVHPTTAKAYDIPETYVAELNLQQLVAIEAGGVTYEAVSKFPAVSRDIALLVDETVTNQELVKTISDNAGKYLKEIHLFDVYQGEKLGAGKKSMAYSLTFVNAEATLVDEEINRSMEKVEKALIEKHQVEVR
Protocol: IC50 determinations for the aminoacyl-tRNA synthetases (aaRS) isolated from pathogen or HeLa cells were carried out using a modification of the aaRS charging and trichloroacetic acid precipitation assay described previously (see examples: D. Kern et. al., Biochemie, 61, 1257-1272 (1979) and J. Gilbart et. al. Antimicrobial Agents and Chemotherapy, 37(1), 32-38 (1993)). The aaRS enzymes were prepared via standard cloning and expression methods and partially purified or partially purified from pathogen and HeLa cell extracts. The activity of each aaRS enzyme was standardized as trichloroacetic acid precipitable counts (cpm) obtained at 10 minutes reaction time at Km concentrations of substrates. For practical purposes, the minimal acceptable value is approximately 2000 cpm per 10 minute reaction.
Test compounds were typically present as serial dilutions in concentration ranges of 0.35 nM to 35 μM. Test compound solutions were prepared by dissolving test compound in 100% dimethyl sulfoxide and diluting to the final concentration with 50 mM HEPES, pH 7.5. IC50 determinations were typically performed in duplicate with each experiment containing 4-8 concentrations of inhibitor along with two no inhibitor controls.
IC50 incubations were initiated by supplementing the preincubation mixture to a final assay concentration of 10 mM MgCl2, 30 mM KCl, 10 mM KF, 50 mM HEPES (pH 7.5), […], 2-20 μM [^3 H] amino acid, and 90-180 μM crude tRNA in a final volume of 35 microliters. The reaction was incubated at 25° C. for 5-20 minutes. At specified time points a 15 microliter aliquot was removed and added to a well of a Millipore filtration plate (Multiscreen-FB, MAFB NOB 10) containing 100 microliters of cold 5% (wt/vol) trichloroacetic acid. Trichloroacetic acid precipitable material was collected by filtration on Millipore Multiscreen filtration station, washed twice with cold 5% trichloroacetic acid, twice with water, and dried. Plates were typically allowed to air dry for several hours or they were baked at 50° C. in a vacuum oven for 30 minutes. The radioactivity on the dried plates was quantitated by the addition of Packard Microscint-20 to the wells and counting with a Packard TopCount scintillation counter.
Inhibitor activity was typically reported as a percentage of the control aaRS activity. The IC50 value was determined by plotting per cent activity versus compound concentration in the assay and identifying the concentration at which 50% of the activity was remaining.
Stereoisomers are tested separately and referred to by the suffix a-d.

[3] = 2-fold dilutions, overnight incubation, optical density readout
[4] = 2-fold dilutions, overnight incubation, optical density readout, read-out: MIC S.aureus

SMILES	MIC ([1]; read-out: MIC S.aureus, 2-fold dilutions, overnight incubation, optical density readout) [µg/mL]	MIC S.aureus [1, 3] [µg/mL]	IC50 [2] [nM]	MIC [1, 4] [µg/mL]
O=C(Nc1ccc(Cl)c(Cl)c1)C1C(c2ccccc2)OC23C(=NO)c4ccccc4C2OC(=O)C13 (centres unmarked) [Example 5]	< 100			
O=C(Nc1ccc(Cl)c(Cl)c1)C1C(c2ccccc2)NC23C(O)c4ccccc4C2OC(=O)C13 (single isomer, unassigned) [Example 3c]		12.5 (≈ 25.2 µM)	400	
O=C(Nc1ccc(Cl)c(Cl)c1)C1C(c2ccccc2)OC23C(O)c4ccccc4C2OC(=O)C13 (single isomer, unassigned) [Example 1a]		3.1 (≈ 6.25 µM)	170	
Cc1ccc(NC(=O)C2C(c3ccccc3)OC34C(O)c5ccccc5C3OC(=O)C24)cc1Cl (centres unmarked) [Example 4c]		25 (≈ 52.5 µM)	33200	
Cc1ccc(NC(=O)C2C(c3ccccc3)OC34C(O)c5ccccc5C3OC(=O)C24)cc1Cl (centres unmarked) [Example 4b]		> 100	8230	
Cc1ccc(NC(=O)C2C(c3ccccc3)OC34C(O)c5ccccc5C3OC(=O)C24)cc1Cl (centres unmarked) [Example 4a]		> 100	1480	
O=C(Nc1ccc(Cl)c(Cl)c1)C1C(c2ccccc2)NC23C(O)c4ccccc4C2OC(=O)C13 (single isomer, unassigned) [Example 3b]			4300	25 (≈ 50.5 µM)
O=C(Nc1ccc(Cl)c(Cl)c1)C1C(c2ccccc2)OC23C(O)c4ccccc4C2OC(=O)C13 (single isomer, unassigned) [Example 1b]		6.25 (≈ 12.6 µM)	470	
O=C(Nc1ccc(Cl)c(Cl)c1)C1C(c2ccccc2)OC23C(=O)c4ccccc4C2OC(=O)C13 (centres unmarked) [Example 2]			3080	> 100

Reference: patent US6153645A, “Heterocycles as antimicrobial agents” (Cubist Pharmaceuticals, Inc., priority 1999, dated 2000)
